{"source": "paper PMC5369982", "about": "“Near infrared fluorescent imaging of choline kinase alpha expression and inhibition in breast tumors” (Oncotarget, 2017)", "key": {"4175-Luc+ tumors": {"tested_on": "4175-Luc+ tumors", "assay": "Tumor growth inhibition", "assay_type": "in vivo, mouse", "conditions": "5-day i.p. regimen from day 3 after inoculation; MN58b 2 mg/kg/day, JAS239 4 mg/kg/day", "procedure": "All animal studies were approved by the Institutional Animal Care and Use Committee of the University of Pennsylvania. Six week old female athymic nude Foxn1^nu/nu mice (National Cancer Institute) were housed in a temperature-controlled environment with 12 h light/dark cycle. Anesthesia was induced using 2% isoflurane in oxygen for all experiments. For MCF7 tumors, mice were supplemented with 60-day release 0.36 mg 17β-estradiol tablets (Innovative Research of America) using a trochar in the nape of the neck. After 1 week, 4 × 10^6 cells in Matrigel (BD Biosciences) were inoculated into the left (CK+) and contralateral (EV) mammary fat pads. Subcutaneous xenografts, including those analyzed in MRI/MRS studies, were grown on the shoulder to allow for cloaking of the kidneys during optical imaging studies. Tumor growth was determined via caliper measurement of three orthogonal dimensions and volume calculated as length * width * height * π/6.\nA cohort of 15 mice was inoculated with 4175-Luc+ tumors. Beginning 3 days post-inoculation, animals received a 100-μL i.p. injection of either control DMSO/saline, 2 mg/kg MN58b or 4 mg/kg JAS239 in DMSO/saline daily for 5 days. Tumor volumes were assessed by caliper measurement."}, "MDA-MB-231 tumors": {"tested_on": "MDA-MB-231 tumors", "assay": "Pharmacodynamic indicators of ChoKα inhibition (MRI/MRS)", "assay_type": "in vivo, mouse", "conditions": "5 days i.p., MN58b 2 mg/kg, JAS239 4 mg/kg; for Change in tumor tCho compared to control (MRS) / Tumor volume between pre- and post-treatment scans (MRI): day 7; for PUFA resonances (measure of tumor apoptosis): trend not significant", "procedure": "Mice bearing subcutaneous 4175-Luc+ or MB-MDA-231 tumors (∼300 μL) underwent pre-treatment MRS scans in a 9.4 T horizontal bore magnet equipped with 40 G/cm gradients interfaced to an Agilent Direct-Drive console (Agilent) operating vnmrj 2.3.C software. Multi-slice gradient and spin echo images were used for tumor localization. T2-weighted spin echo anatomical images were acquired using a spin echo multi-slice (SEMS) pulse sequence (TR = 1000 ms, TE = 10 ms, number of slices = 20, field of view = 20 × 20 mm^2, slice thickness = 1 mm, NT = 1, matrix size = 256 × 128) and used for voxel selection. A single voxel ^1H PRESS spectrum was acquired in a 3×3x3 mm^3 voxel (TR = 3000 ms, TE1 = 12.68 ms and TE2 = 10.01 ms, number of averages = 128, complex points = 4096, spectral width = 4000 Hz and acquisition time of 6 min 24 sec). Water suppression was achieved using the VAPOR sequence. An unsuppressed water spectrum was acquired (8 averages) as a chemical shift and concentration reference. One week following initiation of treatment, ^1H MR spectra were acquired again. Spectra were processed using Mnova Lite 5.2.5 software (Mestrelab Research). Free induction decays were processed by 10 Hz apodization followed by Fourier transformation. Spectra were phased and chemical shift and baseline correction performed prior to fitting of the water (4.7 ppm), tCho (3.2 ppm), PUFA (2.8 ppm), and lipid (1.3 ppm) resonances. The metabolite/water ratio was determined and the percent change was determined as [post-treatment ratio – pre-treatment ratio] *100%/pre-treatment ratio.\nA cohort of 15 mice was inoculated with MDA-MB-231 cells. When a volume of 300 μL was reached, tumors were scanned using MRS. Tumor volumes were measured using T2-weighted images. The animals were separated into treatment groups, and for 5 consecutive days each group was injected i.p. with 100 μL of DMSO/saline vehicle (n = 5), 2 mg/kg MN58b (n = 4), or 4 mg/kg JAS239 (n = 3). Initial cohort sizes were 5 per condition, but some animals had to be removed from the study because the treatment was so effective that we were unable to place voxels within post-treatment tumors that were too small. Follow-up MRI/MRS scanning was performed on day 7 to assess tumor growth inhibition and changes in metabolite levels. After imaging, blood was collected into heparin-coated tubes by cardiac puncture. Resected tumors were embedded in Optimum Cryo-Temperature (Sakura Finetek), flash-frozen in liquid nitrogen, and stored at –80 °C. Blood samples were submitted to the Ryan Veterinary Clinic Diagnostic labs for toxicology."}, "MDA-MB-231 cells": {"tested_on": "MDA-MB-231 cells", "assay": "Cell viability, MTT assay", "assay_type": "cell-based, human", "conditions": "17 h, ± SEM, 3 experiments", "procedure": "(§1) MCF7 cells were plated for Trypan exclusion assays at 1.0 × 10^6 cells/well in 6-well plates and treated with MN58b or JAS239, synthesized in house. At 17 h, cells were collected by trypsinization, stained with Trypan Blue, and counted using a Neubauer hemocytometer. For 3-(4,5-Dimethylthiazol-2-yl)-2,5-diphenyltetrazolium bromide (MTT) assays, cells in 96-well plates (7.5 × 10^4 cells/well) were treated with JAS239 or MN58b overnight, and stained with 20 μL of 5 mg/mL MTT (Sigma-Aldrich) for 2 h, lysed with DMSO and scanned for absorbance using a SpectraMax M5 plate reader (Molecular Devices) at 550 nm, subtracting background absorbance at 690 nm from each sample.\n(§2) Supplementary Figure 2: Breast cancer cell viability in response to ChoK inhibitors. (A–D) Cell viability measurements via […]\n(§3) (A) or JAS239 (B). MTT assays were performed on MDA-MB-231 and 4175-Luc+ (C, D) cells exposed to MN58b (C) or JAS239 (D).\n(§4) Values are reported relative to untreated control groups and represent ± SEM for 3 separate experiments. At higher JAS239 concentrations, the MTT assay was used as JAS239 interfered with Trypan blue counting. There was no overlap in absorbance readings between the MTT formazan product and JAS239.\n(§5) (1 picture or pasted object on this page, not shown here)"}, "4175-Luc+ cells": {"tested_on": "4175-Luc+ cells", "assay": "Cell viability, MTT assay", "assay_type": "cell-based, human", "conditions": "17 h, ± SEM, 3 experiments", "procedure": "as §1, §2, §3, §4, §5"}}, "data": [{"compound": "CC1(C)C(=C/C=C/C=C/C=C/C2=[N+](CCO)c3ccccc3C2(C)C)N(CCO)c2ccccc21", "note": "[JAS239]", "values": [{"measurement": "Tumor volume compared to control animals", "setting": "4175-Luc+ tumors", "result": "significantly smaller tumor volumes"}, {"measurement": "Change in tumor tCho compared to control (MRS)", "setting": "MDA-MB-231 tumors", "result": "reduce tCho to noise levels"}, {"measurement": "Tumor volume between pre- and post-treatment scans (MRI)", "setting": "MDA-MB-231 tumors", "result": "static"}, {"measurement": "PUFA resonances (measure of tumor apoptosis)", "setting": "MDA-MB-231 tumors", "result": "increased"}, {"measurement": "EC50", "setting": "MDA-MB-231 cells", "result": "27.2 ± 7.9", "unit": "µM"}, {"measurement": "EC50", "setting": "4175-Luc+ cells", "result": "35 ± 21.6", "unit": "µM"}]}, {"compound": "MN58b [reference compound]", "values": [{"measurement": "Tumor volume compared to control animals", "setting": "4175-Luc+ tumors", "result": "significantly smaller tumor volumes"}, {"measurement": "Change in tumor tCho compared to control (MRS)", "setting": "MDA-MB-231 tumors", "result": "Significant reductions in tCho"}, {"measurement": "Tumor volume between pre- and post-treatment scans (MRI)", "setting": "MDA-MB-231 tumors", "result": "static"}, {"measurement": "PUFA resonances (measure of tumor apoptosis)", "setting": "MDA-MB-231 tumors", "result": "increased"}, {"measurement": "EC50", "setting": "MDA-MB-231 cells", "result": "14.3 ± 4.6", "unit": "µM"}, {"measurement": "EC50", "setting": "4175-Luc+ cells", "result": "20.7 ± 6.4", "unit": "µM"}]}]}
